Test results: patent US6960458B2, “Erythrose reductase, its cDNA and cell which the cDNA express” (Director of National Food Research Institute, Ministry of …, priority 2001, dated 2005)

What was measured:
[1] = test system: recombinant erythrose reductase type I; experiment: Substrate specificity of purified recombinant erythrose reductase type I, NADPH consumption at 340 nm; assay type: biochemical, Trichosporonoides megachiliensis; conditions: rate with D-erythrose = 100%; 12 mM substrate, 0.2 mM NADPH, 50 mM phosphate buffer pH 6.5, 37° C., 5 minutes
Description: (§1) The substrate specificities of the purified recombinant erythrose reductases type III, type II, and type I were compared with that of the erythrose reductase heretofore reported (natural type: H. Ishizuka et al., Biosci. Biotech. Biochem., 56(6), 941-945, 1992).
(§2) In the presence of 50 mM of a phosphate buffer at pH 6.5, 12 mM of a substrate, and 0.2 mM of NADPH, 20 μL of an enzyme was acted (1 mL in total), and a change with time in optical absorbance at 340 nm was measured at 37° C. for 5 minutes.
(§3) With the reaction rate at which erythrose is reduced as a substrate as being 100%, relative values (%) of reaction rates for reducing various ketoses and aldoses are shown in Table 1.

[2] = test system: recombinant erythrose reductase type II; experiment: Substrate specificity of purified recombinant erythrose reductase type II, NADPH consumption at 340 nm; assay type: biochemical, Trichosporonoides megachiliensis; conditions: rate with D-erythrose = 100%; 12 mM substrate, 0.2 mM NADPH, 50 mM phosphate buffer pH 6.5, 37° C., 5 minutes
Description: as §1, §2, §3

[3] = test system: recombinant erythrose reductase type III; experiment: Substrate specificity of purified recombinant erythrose reductase type III, NADPH consumption at 340 nm; assay type: biochemical, Trichosporonoides megachiliensis; conditions: rate with D-erythrose = 100%; 12 mM substrate, 0.2 mM NADPH, 50 mM phosphate buffer pH 6.5, 37° C., 5 minutes
Description: as §1, §2, §3

[4] = test system: natural type erythrose reductase type III; conditions: rate with D-erythrose = 100%; 12 mM substrate, 0.2 mM NADPH, 50 mM phosphate buffer pH 6.5, 37° C.; reported natural type (Ishizuka et al. 1992); cited from earlier work
[5] = IEF-PAGE (isoelectric focusing) of purified recombinant erythrose reductases; assay type: physicochemical; conditions: Phast Gel IEF pH 4-6.5, from mobility of band
Description: On the purified recombinant erythrose reductases, IEF-PAGE was carried out with a fully automatic electrophoresis system called Phast System (produced by Amersham Pharmacia Biotech), using a gel (trade name: Phast Gel (IEF pH 4-6.5), manufacturer: Amersham Pharmacia Biotech).
Electrophoresis was conducted using a pH gradient gel, and the separated proteins were stained.
From FIG. 9, the isoelectric point of each enzyme could be confirmed from the mobility of a band.

Molecule	Relative value (%) of reaction rate, Recombinant type Type I [1] [%]	Relative value (%) of reaction rate, Recombinant type Type II [2] [%]	Relative value (%) of reaction rate, Recombinant type Type III [3] [%]	Relative value (%) of reaction rate, Normal type Type III [4] [%]	isoelectric point (pI) [5]
O=C[C@@H](O)[C@H](O)[C@H](O)CO [D-arabinose]	0.9	0.0	0.0	0.0	–
O=C[C@H](O)[C@H](O)CO [D-erythrose]	100.0	100.0	100.0	100.0	–
O=C(CO)[C@@H](O)[C@H](O)[C@H](O)CO [D-fructose]	0.0	0.0	0.0	0.0	–
O=C[C@H](O)[C@@H](O)[C@@H](O)[C@H](O)CO [D-galactose]	0.0	0.0	0.0	0.0	–
O=C[C@H](O)[C@@H](O)[C@H](O)[C@H](O)CO [D-glucose]	0.0	0.0	0.0	0.0	–
O=C[C@H](O)[C@@H](O)[C@H](O)[C@H](O)C(=O)O [D-glucuronate]	0.7	0.0	0.8	6.6	–
O=C[C@H](O)CO [D-glyceraldehyde]	102.0	107.8	98.2	66.0	–
O=C[C@@H](O)[C@@H](O)[C@H](O)[C@H](O)CO [D-mannose]	0.0	0.0	0.0	0.0	–
O=C[C@H](O)[C@H](O)[C@H](O)CO [D-ribose]	1.0	0.7	2.3	1.2	–
O=C[C@H](O)[C@@H](O)[C@H](O)CO [D-xylose]	3.2	2.4	4.5	1.2	–
O=C(CO)[C@@H](O)[C@H](O)CO [D-xylulose]	7.5	3.5	7.8	0.0	–
O=C(CO)[C@@H](O)CO [L-erythrulose]	–	–	–	38.0	–
O=C(CO)[C@@H](O)[C@H](O)[C@@H](O)CO [L-sorbose]	0.0	0.0	0.0	0.0	–
OC[C@H]1O[C@H](O[C@H]2O[C@H](CO)[C@@H](O)[C@H](O)[C@H]2O)[C@H](O)[C@@H](O)[C@@H]1O [Trehalose]	0.0	0.0	0.0	0.0	–
O=Cc1ccc([N+](=O)[O-])cc1 [p-nitrobenzaldehyde]	11.5	8.8	66.3	46.0	–
purified recombinant erythrose reductase type I: recombinant enzyme of SEQ. ID No. 6 expressed in E. coli, histidine Tag cleaved (protein) MSYNKNIPLNDGNSIPALGYGTWQAEPGQVGEGVKLAVKAGYRHLDLAKVYQNQTEIGQALKELFDEGVVKREDLFITSKLWNNRHAPEHVEPALDETLKELGLSYLDLYLIHWPVAFKFTTPDELLPADPTNKDLAYIDDSVKLSDTWKAVVALKKTGKTKSVGVSNFSTRLVDLVEEASGERPAVNQIEAHPLLQQDELVAHHKSKNIVITAYSPLGNNVAGKPPLTENPGIVDAAKRLNHTPAAVLIAWGIQRGYSVLVKSVTPSRIKSNFEQITLSDEEFQRVTNLIKEYGESRNNVPFNYKPSWSIDVFGTQYEAKATHKINA	–	–	–	–	4.7
purified recombinant erythrose reductase type II: recombinant enzyme of SEQ. ID No. 4 expressed in E. coli, histidine Tag cleaved (protein) MSYKQYIPLNDGNKIPALGFGTWQAEPGQVGASVKNAVKAGYRHLDLAKVYQNQSEIGVALQELFDQGIVKREDLFITSKVWNNRHAPEHVEPALDETLKELGLSYLDLYLIHWPVAFKFTTPQELFPTEPDNKELAAIDDSIKLVDTWKAVVALKKTGKTKSVGVSNFTTDLVDLVEKASGERPAVNQIEAHPLLQQDELVAHHKSKNIVITAYSPLGNNVSGKPPLTQNPGIEATAKRLNHTPAAVLLAWGIQRGYSVLVKSVTPSRIESNYDQITLSPEEFQKVTDLIKEYGESRNNIPLNYKPSWPISVFGTSDEAKATHKINTNL	–	–	–	–	5.3
purified recombinant erythrose reductase type III: recombinant enzyme of SEQ. ID No. 2 expressed in E. coli, histidine Tag cleaved (protein) MSYKQYIPLNDGNKIPALGFGTWQAEPGQVGASVKNAVKAGYRHLDLAKVYQNQSEIGVALQELFDQGIVKREDLFITSKVWNNRHAPEHVEPALDETLKELGLSYLDLYLIHWPVAFKFTTPQELFPTEPDNKELAAIDDSIKLVDTWKAVVALKKTGKTKSVGVSNFTTDLVDLVEKASGERPAVNQIEAHPLLQQDELVAHHKSKNIVITAYSPLGNNVSGKPPLTQNPGIEATAKRLNHTPAAVLLAWGIQRGYSVLVKSVTPSRIESNYDQITLSPEEFQKVTDLIKEYGESRNNIPLNYKPSWPISVFGTSDEAKATHKINTNL	–	–	–	–	5.8
